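48-hour exposure; five concentrations; linearly interpolated endpoints. GI50 = concentration required for 50% inhibition of growth.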 Calls of active or inactive are those of the source. Rule as the data show it: active = GI50 up to about 1.1 µM and inactive = higher.
Columns and labels:
Test in all cases: NCI tumour cell line growth inhibition, 48 h
[1] = test system: OVCAR-4
[2] = test system: SN12C
[3] = test system: SF-539
[4] = test system: LOX IMVI
[5] = test system: IGROV-1
[6] = test system: HCT-116
[7] = test system: OVCAR-3
[8] = test system: UACC-62
[9] = test system: SW-620
[10] = test system: M14
[11] = test system: CAKI-1
[12] = test system: OVCAR-5
[13] = test system: Malme-3M
[14] = test system: OVCAR-8
[15] = test system: HCC 2998
[16] = test system: RPMI-8226

Measured: GI50

O=c1/c(=C/c2c(O)ccc3ccccc23)sc2nc3ccccc3n12
inactive: [1] > 100 µM | [2] > 100 µM | [3] > 100 µM | [4] > 100 µM | [5] > 100 µM | [6] > 100 µM | [7] > 100 µM | [8] > 100 µM | [9] > 100 µM | [10] > 100 µM | [11] > 100 µM | [12] > 100 µM | [13] > 100 µM | [14] > 100 µM | [15] > 100 µM

O=[PH](O)c1ccsc1
inactive: [2] > 100 µM | [3] > 100 µM | [4] > 100 µM | [5] > 100 µM | [6] > 100 µM | [16] > 100 µM | [8] > 100 µM | [9] > 100 µM | [10] > 100 µM | [11] 52.1 µM | [14] > 100 µM

COc1cc(C(C#N)NNc2nc(C)cc(O)n2)cc(OC)c1OC (stereo not drawn)
inactive: [1] > 100 µM | [2] > 100 µM | [3] > 100 µM | [4] > 100 µM | [5] > 100 µM | [6] > 100 µM | [7] > 100 µM | [16] > 100 µM | [8] > 100 µM | [9] > 100 µM | [10] > 100 µM | [11] > 100 µM | [12] > 100 µM | [13] > 100 µM | [14] > 100 µM

COc1ccc(/C=C/CN(C)CCc2ccccc2)cc1OC
inactive: [2] 66.1 µM | [5] > 100 µM | [6] 26.4 µM | [7] 73.3 µM | [16] 59.3 µM | [8] > 100 µM | [9] 97.3 µM | [12] 41.1 µM | [13] 62.4 µM | [14] > 100 µM | [15] 32.1 µM

O=C(CCc1n[nH]c(=S)o1)Nc1cc(Cl)c(Cl)cc1Cl
inactive: [1] > 100 µM | [2] > 100 µM | [3] 52.7 µM | [5] 34.6 µM | [6] 15.9 µM | [7] 41.8 µM | [16] 20.5 µM | [8] 21.9 µM | [9] 12.9 µM | [10] 83.6 µM | [11] 27.2 µM | [12] 54.3 µM | [13] > 100 µM | [14] 51.2 µM | [15] > 100 µM

Cc1ccc(S(=O)(=O)n2c(-c3ccccc3)c(-c3ccccc3)c3ccccc32)cc1
inactive: [1] > 100 µM | [2] > 100 µM | [3] > 100 µM | [4] > 100 µM | [5] > 100 µM | [6] > 100 µM | [7] > 100 µM | [16] 23.1 µM | [8] > 100 µM | [9] > 100 µM | [10] > 100 µM | [12] > 100 µM | [13] > 100 µM | [14] > 100 µM | [15] > 100 µM

CCOc1cc(/C=C/C=C/C=C/c2ccc(N(C)C)cc2)[s+]c2ccccc12
inactive: [1] 19.3 µM | [2] 21.2 µM | [3] 18.2 µM | [5] 37.5 µM | [6] 17.7 µM | [7] 14.4 µM | [16] 6.78 µM | [8] 27.8 µM | [9] 30.3 µM | [10] 19.7 µM | [11] 26.5 µM | [12] > 100 µM | [13] 22.9 µM | [14] 27.6 µM | [15] 48.2 µM

COCCNC(=O)C1C(=O)C(=O)N(CCOC)C1=O (stereo not drawn)
inactive: [1] > 100 µM | [2] > 100 µM | [3] > 100 µM | [4] > 100 µM | [5] > 100 µM | [6] > 100 µM | [7] > 100 µM | [8] > 100 µM | [9] > 100 µM | [10] > 100 µM | [11] > 100 µM | [12] > 100 µM | [13] > 100 µM | [14] > 100 µM | [15] > 100 µM

CC(C)CC(NC(=O)OC(C)(C)C)C(=O)Nc1ccc(Nc2nc(F)nc(-c3c4ccccc4c4n3CCS4)n2)cc1 (stereo not drawn)
inactive: [2] 21.6 µM | [3] 20.6 µM | [5] 24 µM | [6] 23.5 µM | [7] 20.3 µM | [16] 24.4 µM | [8] 17.2 µM | [9] 16.1 µM | [10] 20.2 µM | [11] 18.2 µM | [12] 22.4 µM | [13] 21.2 µM | [14] 22 µM | [15] 18 µM

CCOc1ccc([Se][Se]c2ccc(OCC)cc2)cc1
inactive: [1] > 100 µM | [2] > 100 µM | [3] > 100 µM | [5] 94.4 µM | [6] 56.1 µM | [7] > 100 µM | [16] 28.1 µM | [8] 95.7 µM | [9] > 100 µM | [10] > 100 µM | [11] 21 µM | [12] 18.8 µM | [13] > 100 µM | [14] > 100 µM | [15] > 100 µM

CCOC(=O)C1Sc2ccccc2N=C1C (stereo not drawn)
inactive: [1] > 100 µM | [2] > 100 µM | [3] > 100 µM | [4] > 100 µM | [5] > 100 µM | [6] > 100 µM | [7] > 100 µM | [16] > 100 µM | [9] > 100 µM | [12] > 100 µM | [13] > 100 µM | [14] > 100 µM | [15] > 100 µM

COC(=O)C(=O)C(C(=O)OC)C(=O)C(=O)Nc1cc(Cl)c(C)cc1S(=O)(=O)O (stereo not drawn)
inactive: [1] > 100 µM | [2] > 100 µM | [3] > 100 µM | [4] > 100 µM | [5] > 100 µM | [6] > 100 µM | [7] > 100 µM | [8] > 100 µM | [9] > 100 µM | [10] > 100 µM | [11] > 100 µM | [12] > 100 µM | [13] > 100 µM | [14] > 100 µM | [15] > 100 µM

COc1cc2c(Cc3cc(OCc4ccccc4)ccc3N)nccc2c(OC)c1OC
inactive: [2] > 10 µM | [3] > 10 µM | [4] > 10 µM | [5] > 10 µM | [6] > 10 µM | [7] > 10 µM | [16] > 10 µM | [8] > 10 µM | [9] > 10 µM | [10] > 10 µM | [12] > 10 µM | [13] > 10 µM | [14] > 10 µM | [15] > 10 µM

O=c1c(O)c(-c2ccc(O)c(O)c2)oc2cc(O)cc(O)c12 [QUERCETIN]
inactive: [1] > 100 µM | [2] > 100 µM | [3] 47.5 µM | [4] 18.9 µM | [5] 59.3 µM | [6] 46.1 µM | [7] > 100 µM | [8] 31.2 µM | [9] 20.3 µM | [10] > 100 µM | [11] > 100 µM | [12] > 100 µM | [13] > 100 µM | [14] 72.6 µM | [15] > 100 µM
